Experimental data published in article PMC5218480 (PLoS ONE, 2017).

Test system: MV-4-11 cells
Test: Gene expression microarray analysis (Affymetrix PrimeView) and GSEA
Format: cell-based, human
Design: RFU PODN (11730768_x_at) / Fold change /veh PODN (11730768_x_at) / RFU LINC00158 (11744669_a_at) / Fold change /veh LINC00158 (11744669_a_at) / RFU DUSP10 (11751237_a_at) / Fold change /veh DUSP10 (11751237_a_at) / RFU ID3 (11757404_x_at) / Fold change /veh ID3 (11757404_x_at) / RFU PLEKHG5 (11737974_s_at) / Fold change /veh PLEKHG5 (11737974_s_at) / RFU LRRC4B (11730491_at) / Fold change /veh LRRC4B (11730491_at) / RFU GIMAP4 (11747438_a_at) / Fold change /veh GIMAP4 (11747438_a_at) / RFU KRT8 (11758183_x_at) / Fold change /veh KRT8 (11758183_x_at) / RFU CNN1 (11734310_a_at) / Fold change /veh CNN1 (11734310_a_at) / RFU VPS37D (11726825_at) / Fold change /veh VPS37D (11726825_at) / RFU C10orf10 (11716522_x_at) / Fold change /veh C10orf10 (11716522_x_at) / RFU KIR2DL2 /// KIR2DL4 /// KIR2DL5A /// KIR2DL5B /// KIR2DS1 /// KIR2DS2 /// KIR2DS3 /// KIR2DS4 /// KIR3DL3 /// KIR3DL3 /// KIR3DS1 (11738374_at) / Fold change /veh KIR2DL2 /// KIR2DL4 /// KIR2DL5A /// KIR2DL5B /// KIR2DS1 /// KIR2DS2 /// KIR2DS3 /// KIR2DS4 /// KIR3DL3 /// KIR3DL3 /// KIR3DS1 (11738374_at) / RFU C1QL1 (11718748_at) / Fold change /veh C1QL1 (11718748_at) / RFU TMPRSS4 (11747572_a_at) / Fold change /veh TMPRSS4 (11747572_a_at) / RFU HAMP (11756126_x_at) / Fold change /veh HAMP (11756126_x_at) / RFU RNFT2 (11725882_a_at) / Fold change /veh RNFT2 (11725882_a_at) / RFU NR4A2 (11747474_a_at) / Fold change /veh NR4A2 (11747474_a_at) / RFU ABCC12 (11746883_a_at) / Fold change /veh ABCC12 (11746883_a_at) / RFU TMEM136 (11760407_x_at) / Fold change /veh TMEM136 (11760407_x_at) / RFU CLDN22 /// WWC2 (11732394_at) / Fold change /veh CLDN22 /// WWC2 (11732394_at) / RFU HLA-DPB1 (11760878_x_at) / Fold change /veh HLA-DPB1 (11760878_x_at) / RFU SPINT1 (11716480_a_at) / Fold change /veh SPINT1 (11716480_a_at) / RFU GAP43 (11754022_s_at) / Fold change /veh GAP43 (11754022_s_at) / RFU A4GNT (11735810_at) / Fold change /veh A4GNT (11735810_at) / RFU PRB3 (11715151_x_at) / Fold change /veh PRB3 (11715151_x_at) / RFU TUBB4B (11761932_at) / Fold change /veh TUBB4B (11761932_at) / RFU CAPN14 (11732068_a_at) / Fold change /veh CAPN14 (11732068_a_at) / RFU TMCC2 (11721928_a_at) / Fold change /veh TMCC2 (11721928_a_at) / RFU IRGQ (11745062_a_at) / Fold change /veh IRGQ (11745062_a_at) / RFU FAM174B (11720279_a_at) / Fold change /veh FAM174B (11720279_a_at) / RFU TMPRSS4 (11748680_a_at) / Fold change /veh TMPRSS4 (11748680_a_at) / RFU FAM212B (11763350_a_at) / Fold change /veh FAM212B (11763350_a_at) / RFU PLEKHG5 (11743358_a_at) / Fold change /veh PLEKHG5 (11743358_a_at) / RFU ZSCAN30 (11745921_a_at) / Fold change /veh ZSCAN30 (11745921_a_at) / RFU CMKLR1 (11741424_a_at) / Fold change /veh CMKLR1 (11741424_a_at) / RFU LOC101060620 /// MAPK8IP1 (11723275_at) / Fold change /veh LOC101060620 /// MAPK8IP1 (11723275_at) / RFU SPTSSB (11747773_x_at) / Fold change /veh SPTSSB (11747773_x_at) / RFU PRSS12 (11739890_at) / Fold change /veh PRSS12 (11739890_at) / RFU BIN1 (11741810_x_at) / Fold change /veh BIN1 (11741810_x_at) / RFU WNT11 (11732464_a_at) / Fold change /veh WNT11 (11732464_a_at) / RFU C10orf10 (11716521_a_at) / Fold change /veh C10orf10 (11716521_a_at) / RFU C5orf56 (11738089_at) / Fold change /veh C5orf56 (11738089_at) / RFU CYB561 (11721691_x_at) / Fold change /veh CYB561 (11721691_x_at) / RFU ANKRD19P (11752326_a_at) / Fold change /veh ANKRD19P (11752326_a_at) / RFU OR2T12 /// OR2T33 /// OR2T8 (11738714_s_at) / Fold change /veh OR2T12 /// OR2T33 /// OR2T8 (11738714_s_at) / RFU VCAN (11748164_a_at) / Fold change /veh VCAN (11748164_a_at) / RFU JSRP1 (11732532_at) / Fold change /veh JSRP1 (11732532_at) / RFU KRTAP10-11 (11738290_x_at) / Fold change /veh KRTAP10-11 (11738290_x_at) / RFU MYO3A (11730013_a_at) / Fold change /veh MYO3A (11730013_a_at) / RFU EBF3 (11725865_a_at) / Fold change /veh EBF3 (11725865_a_at) / RFU CAMK2N1 (11719241_x_at) / Fold change /veh CAMK2N1 (11719241_x_at) / RFU C5orf56 (11738088_a_at) / Fold change /veh C5orf56 (11738088_a_at) / RFU OLFML3 (11715873_a_at) / Fold change /veh OLFML3 (11715873_a_at) / RFU LOC100653217 /// NTM (11731650_a_at) / Fold change /veh LOC100653217 /// NTM (11731650_a_at) / RFU MAPK11 (11762145_a_at) / Fold change /veh MAPK11 (11762145_a_at) / RFU FIZ1 (11724087_x_at) / Fold change /veh FIZ1 (11724087_x_at) / RFU OASL (11726364_x_at) / Fold change /veh OASL (11726364_x_at) / RFU SOX15 (11748057_x_at) / Fold change /veh SOX15 (11748057_x_at) / RFU CD79A (11719716_a_at) / Fold change /veh CD79A (11719716_a_at) / RFU HIST1H1D (11736915_at) / Fold change /veh HIST1H1D (11736915_at) / RFU CASKIN2 (11723855_a_at) / Fold change /veh CASKIN2 (11723855_a_at) / RFU LOC730098 (11760151_x_at) / Fold change /veh LOC730098 (11760151_x_at) / RFU OR4N2 (11742367_at) / Fold change /veh OR4N2 (11742367_at) / RFU PRRT2 (11749266_a_at) / Fold change /veh PRRT2 (11749266_a_at) / RFU SNX32 (11753110_a_at) / Fold change /veh SNX32 (11753110_a_at) / RFU CDHR5 (11726645_a_at) / Fold change /veh CDHR5 (11726645_a_at) / RFU RCAN1 (11760418_a_at) / Fold change /veh RCAN1 (11760418_a_at) / RFU FAM167A (11723789_a_at) / Fold change /veh FAM167A (11723789_a_at) / RFU FAM26E (11764081_at) / Fold change /veh FAM26E (11764081_at) / RFU ISYNA1 (11749810_s_at) / Fold change /veh ISYNA1 (11749810_s_at) / RFU ACY1 (11761880_at) / Fold change /veh ACY1 (11761880_at) / RFU 11764098_at / Fold change /veh 11764098_at / RFU SAMD14 (11745864_x_at) / Fold change /veh SAMD14 (11745864_x_at) / RFU NPB (11741838_a_at) / Fold change /veh NPB (11741838_a_at) / RFU TMPRSS6 (11731388_a_at) / Fold change /veh TMPRSS6 (11731388_a_at) / RFU KRTAP10-2 (11738614_at) / Fold change /veh KRTAP10-2 (11738614_at) / RFU ARHGAP8 /// PRR5-ARHGAP8 (11727945_x_at) / Fold change /veh ARHGAP8 /// PRR5-ARHGAP8 (11727945_x_at) / RFU KRTAP5-7 /// NADSYN1 (11734609_at) / Fold change /veh KRTAP5-7 /// NADSYN1 (11734609_at) / RFU RASL12 (11751679_a_at) / Fold change /veh RASL12 (11751679_a_at) / RFU CDKN2B (11736163_a_at) / Fold change /veh CDKN2B (11736163_a_at) / RFU PRF1 (11729649_at) / Fold change /veh PRF1 (11729649_at) / RFU, ZNF638 /// ZNF638-IT1 / Fold change vs veh, ZNF638 /// ZNF638-IT1 / RFU, PANK3 / Fold change vs veh, PANK3 / RFU, SH3YL1 / Fold change vs veh, SH3YL1 / RFU, ZEB2 / Fold change vs veh, ZEB2 / RFU, NRIP1 / Fold change vs veh, NRIP1 / RFU, PTTG1IP / Fold change vs veh, PTTG1IP / RFU, CAPN2 / Fold change vs veh, CAPN2 / RFU, MED14 / Fold change vs veh, MED14 / RFU, SNORA58 / Fold change vs veh, SNORA58 / RFU, C1orf63 / Fold change vs veh, C1orf63 / RFU, LRRFIP1 / Fold change vs veh, LRRFIP1 / RFU, NDUFAF7 / Fold change vs veh, NDUFAF7 / RFU, SLC12A2 / Fold change vs veh, SLC12A2 / RFU, IBTK / Fold change vs veh, IBTK / RFU, ESF1 / Fold change vs veh, ESF1 / Fold change vs veh, TMEM50B / RFU, TAOK1 / Fold change vs veh, TAOK1 / RFU, ACBD3 / Fold change vs veh, ACBD3 / RFU, TMA16 / Fold change vs veh, TMA16 / RFU, RWDD3 / Fold change vs veh, RWDD3 / RFU, BCAT1 / Fold change vs veh, BCAT1 / RFU, EDEM3 / Fold change vs veh, EDEM3 / RFU, TMEM33 / Fold change vs veh, TMEM33 / RFU, WDR75 / Fold change vs veh, WDR75 / RFU, AHCTF1 / Fold change vs veh, AHCTF1 / RFU, TFRC / Fold change vs veh, TFRC / RFU, ZDHHC17 / Fold change vs veh, ZDHHC17 / RFU, NOM1 / Fold change vs veh, NOM1 / RFU, ARL8B / Fold change vs veh, ARL8B / RFU, ZBTB11 / Fold change vs veh, ZBTB11 / RFU, TAMM41 / Fold change vs veh, TAMM41 / RFU, KIAA1704 /// LOC100996395 / Fold change vs veh, KIAA1704 /// LOC100996395 / RFU, ING1 / Fold change vs veh, ING1 / RFU, TRMT61B / Fold change vs veh, TRMT61B / RFU, FUBP3 / Fold change vs veh, FUBP3 / RFU, TP53 / Fold change vs veh, TP53 / RFU, TNKS2 / Fold change vs veh, TNKS2 / RFU, ZFP14 / Fold change vs veh, ZFP14 / RFU, ACTR2 / Fold change vs veh, ACTR2 / RFU, PPP3R1 / Fold change vs veh, PPP3R1 / RFU, PIK3R1 / Fold change vs veh, PIK3R1 / RFU, HNRNPA1 / Fold change vs veh, HNRNPA1 / RFU, RNF170 / Fold change vs veh, RNF170 / RFU, ZNF28 / Fold change vs veh, ZNF28 / RFU, RNGTT / Fold change vs veh, RNGTT / RFU, OGT / Fold change vs veh, OGT / RFU, BRD1 / Fold change vs veh, BRD1 / RFU, MARS / Fold change vs veh, MARS / RFU, ZNF655 / Fold change vs veh, ZNF655 / RFU, FAHD1 / Fold change vs veh, FAHD1 / RFU, BDP1 / Fold change vs veh, BDP1 / RFU, LRRCC1 / Fold change vs veh, LRRCC1 / RFU, ARID1A / Fold change vs veh, ARID1A / RFU, ZNF146 / Fold change vs veh, ZNF146 / RFU, ZNF330 / Fold change vs veh, ZNF330 / RFU, GPN3 / Fold change vs veh, GPN3 / RFU, C9orf123 / Fold change vs veh, C9orf123 / RFU, N4BP2L2 / Fold change vs veh, N4BP2L2 / RFU, ARFIP1 / Fold change vs veh, ARFIP1 / RFU, FAM179B / Fold change vs veh, FAM179B / RFU, BCL10 / Fold change vs veh, BCL10 / RFU, UHRF1BP1L / Fold change vs veh, UHRF1BP1L / RFU, BET1 / Fold change vs veh, BET1 / RFU, CNOT2 / Fold change vs veh, CNOT2 / RFU, ZNF268 / Fold change vs veh, ZNF268 / Fold change vs veh, ZNF507 / RFU, DGCR2 / Fold change vs veh, DGCR2 / RFU, WDSUB1 / Fold change vs veh, WDSUB1 / Fold change vs veh, HSP90B1 /// MIR3652 / RFU, ADSS / Fold change vs veh, ADSS / RFU, GK / Fold change vs veh, GK / RFU, ZNF148 / Fold change vs veh, ZNF148 / RFU, TAF9 / Fold change vs veh, TAF9 / RFU, SLC1A5 / Fold change vs veh, SLC1A5 / RFU, SLMO2 / Fold change vs veh, SLMO2 / RFU, ABCC4 / Fold change vs veh, ABCC4 / RFU, LOC101060439 /// RAP1B / Fold change vs veh, LOC101060439 /// RAP1B / RFU, RFX7 / Fold change vs veh, RFX7 / RFU, GTPBP10 / Fold change vs veh, GTPBP10 / RFU, CNEP1R1 / Fold change vs veh, CNEP1R1 / RFU, BIVM-ERCC5 /// ERCC5 / Fold change vs veh, BIVM-ERCC5 /// ERCC5 / RFU, ILF3 / Fold change vs veh, ILF3 / RFU 11762660_at / Fold change /veh 11762660_at / RFU VCAN (11757783_s_at) / Fold change /veh VCAN (11757783_s_at) / RFU DDX43 (11728927_at) / Fold change /veh DDX43 (11728927_at) / RFU KRT8 (11758188_x_at) / Fold change /veh KRT8 (11758188_x_at) / RFU NKD1 (11759106_at) / Fold change /veh NKD1 (11759106_at) / RFU SRD5A1 (11742802_a_at) / Fold change /veh SRD5A1 (11742802_a_at) / RFU TPSAB1 /// TPSB2 (11721975_s_at) / Fold change /veh TPSAB1 /// TPSB2 (11721975_s_at) / RFU GSTM3 (11746129_a_at) / Fold change /veh GSTM3 (11746129_a_at) / RFU IL23R (11737362_x_at) / Fold change /veh IL23R (11737362_x_at) / RFU TMEM51 (11727254_a_at) / Fold change /veh TMEM51 (11727254_a_at) / RFU PIWIL2 (11732686_x_at) / Fold change /veh PIWIL2 (11732686_x_at) / RFU ORM1 (11744905_x_at) / Fold change /veh ORM1 (11744905_x_at) / RFU CCDC152 (11743942_at) / Fold change /veh CCDC152 (11743942_at) / RFU ECM1 (11717891_a_at) / Fold change /veh ECM1 (11717891_a_at) / RFU IL23R (11748794_a_at) / Fold change /veh IL23R (11748794_a_at) / RFU TNFAIP8L3 (11732012_x_at) / Fold change /veh TNFAIP8L3 (11732012_x_at) / RFU MBOAT4 (11741988_at) / Fold change /veh MBOAT4 (11741988_at) / RFU 11764193_at / Fold change /veh 11764193_at / RFU TMEM53 (11763286_at) / Fold change /veh TMEM53 (11763286_at) / RFU MAGEB2 (11727129_at) / Fold change /veh MAGEB2 (11727129_at) / RFU TMEM200A (11744735_a_at) / Fold change /veh TMEM200A (11744735_a_at) / RFU CCDC152 (11751479_a_at) / Fold change /veh CCDC152 (11751479_a_at) / RFU FAM211A (11726209_a_at) / Fold change /veh FAM211A (11726209_a_at) / RFU RGS16 (11746705_a_at) / Fold change /veh RGS16 (11746705_a_at) / RFU VCAN (11755009_s_at) / Fold change /veh VCAN (11755009_s_at) / RFU RHOB (11743442_s_at) / Fold change /veh RHOB (11743442_s_at) / RFU RGS16 (11720943_a_at) / Fold change /veh RGS16 (11720943_a_at) / RFU RGS16 (11720944_at) / Fold change /veh RGS16 (11720944_at) / RFU, VPS4B / Fold change vs veh, VPS4B / RFU, CREB1 / Fold change vs veh, CREB1 / RFU, DNAJC13 / Fold change vs veh, DNAJC13 / RFU, GNAQ / Fold change vs veh, GNAQ / RFU, CDK5R1 / Fold change vs veh, CDK5R1 / RFU, ZRANB3 / Fold change vs veh, ZRANB3 / RFU, CUL4A / Fold change vs veh, CUL4A / RFU, CCNY / Fold change vs veh, CCNY / RFU, UFL1 / Fold change vs veh, UFL1 / RFU, COG3 / Fold change vs veh, COG3 / RFU, DIAPH2 / Fold change vs veh, DIAPH2 / RFU, SKA2 / Fold change vs veh, SKA2 / RFU, AFF3 / Fold change vs veh, AFF3 / RFU, LMF1 / Fold change vs veh, LMF1 / RFU, IPO11 / Fold change vs veh, IPO11 / RFU, DFFB / Fold change vs veh, DFFB / RFU, FOXP1 / Fold change vs veh, FOXP1 / RFU, CARD8 / Fold change vs veh, CARD8 / RFU, STRN3 / Fold change vs veh, STRN3 / RFU, ADK / Fold change vs veh, ADK / RFU, RASSF2 / Fold change vs veh, RASSF2 / RFU, WIPF1 / Fold change vs veh, WIPF1 / RFU, LARP1B / Fold change vs veh, LARP1B / RFU, RASA1 / Fold change vs veh, RASA1 / RFU, RB1 / Fold change vs veh, RB1 / RFU, PPFIA1 / Fold change vs veh, PPFIA1 / RFU, MAT2A / Fold change vs veh, MAT2A / RFU, CCT5 / Fold change vs veh, CCT5 / RFU, WDR92 / Fold change vs veh, WDR92 / RFU, CUX1 / Fold change vs veh, CUX1 / RFU, TTC7A / Fold change vs veh, TTC7A / RFU, TMEM135 / Fold change vs veh, TMEM135 / RFU, DEPTOR / Fold change vs veh, DEPTOR / RFU, CPM / Fold change vs veh, CPM / RFU, DNAJB6 / Fold change vs veh, DNAJB6 / RFU, CACNA2D3 / Fold change vs veh, CACNA2D3 / RFU, DTX4 / Fold change vs veh, DTX4 / RFU, TFCP2 / Fold change vs veh, TFCP2 / RFU, GMCL1 /// GMCL1P1 / Fold change vs veh, GMCL1 /// GMCL1P1 / RFU, AEBP2 / Fold change vs veh, AEBP2 / RFU, SNHG1 /// SNORD22 /// SNORD25 /// SNORD26 /// SNORD27 /// SNORD28 /// SNORD29 /// SNORD31 / Fold change vs veh, SNHG1 /// SNORD22 /// SNORD25 /// SNORD26 /// SNORD27 /// SNORD28 /// SNORD29 /// SNORD31 / Fold change (Aza/veh), C12orf56 (ProbeSet 11735607_a_at) / Fold change (ACY-1035/veh), C12orf56 (ProbeSet 11735607_a_at) / Fold change (Aza/veh), FGFR1OP (ProbeSet 11751329_s_at) / Fold change (ACY-1035/veh), FGFR1OP (ProbeSet 11751329_s_at) / Fold change (Aza/veh), VPS36 (ProbeSet 11739960_a_at) / Fold change (ACY-1035/veh), VPS36 (ProbeSet 11739960_a_at) / RFU SYPL1 (11715823_x_at) / Fold change /veh SYPL1 (11715823_x_at) / RFU IGFBP7 (11715501_s_at) / Fold change /veh IGFBP7 (11715501_s_at) / RFU REEP3 (11722064_at) / Fold change /veh REEP3 (11722064_at) / RFU IGLL1 (11728026_x_at) / Fold change /veh IGLL1 (11728026_x_at): dose or concentration left out as unconfirmed
Details: ProbeSet 11739106_a_at; LIST B

SMILES: Nc1ncn([C@@H]2O[C@H](CO)[C@@H](O)[C@H]2O)c(=O)n1 [azacitidine]
- Fold change vs veh, TMEM33: 0.88
